The assay has as its target T1, Jagged1 (Homo sapiens, UniProt P78504).
T1 construct: gene JAG1; full-length extracellular domain (C2 to EGF16, 1277-JG-050, R&D Systems) tagged with an Fc-tag (Jagged1-Fc)
Nature of the assay: label-free microscale thermophoresis (MST). It is filed as binding. In general terms: In MST a laser heats a spot of the sample, and binding alters the fluorescence response.

Among the data in PMC12154575, “Azvudine Suppresses Epithelial–Mesenchymal Transition in Hepatocellular Carcinoma by Targeting the Notch–HEY Signalling Pathway” (International Journal of Molecular Sciences, 2025) are Kd values, retold here.

T1 sequence (P78504 34-1067 limits assumed): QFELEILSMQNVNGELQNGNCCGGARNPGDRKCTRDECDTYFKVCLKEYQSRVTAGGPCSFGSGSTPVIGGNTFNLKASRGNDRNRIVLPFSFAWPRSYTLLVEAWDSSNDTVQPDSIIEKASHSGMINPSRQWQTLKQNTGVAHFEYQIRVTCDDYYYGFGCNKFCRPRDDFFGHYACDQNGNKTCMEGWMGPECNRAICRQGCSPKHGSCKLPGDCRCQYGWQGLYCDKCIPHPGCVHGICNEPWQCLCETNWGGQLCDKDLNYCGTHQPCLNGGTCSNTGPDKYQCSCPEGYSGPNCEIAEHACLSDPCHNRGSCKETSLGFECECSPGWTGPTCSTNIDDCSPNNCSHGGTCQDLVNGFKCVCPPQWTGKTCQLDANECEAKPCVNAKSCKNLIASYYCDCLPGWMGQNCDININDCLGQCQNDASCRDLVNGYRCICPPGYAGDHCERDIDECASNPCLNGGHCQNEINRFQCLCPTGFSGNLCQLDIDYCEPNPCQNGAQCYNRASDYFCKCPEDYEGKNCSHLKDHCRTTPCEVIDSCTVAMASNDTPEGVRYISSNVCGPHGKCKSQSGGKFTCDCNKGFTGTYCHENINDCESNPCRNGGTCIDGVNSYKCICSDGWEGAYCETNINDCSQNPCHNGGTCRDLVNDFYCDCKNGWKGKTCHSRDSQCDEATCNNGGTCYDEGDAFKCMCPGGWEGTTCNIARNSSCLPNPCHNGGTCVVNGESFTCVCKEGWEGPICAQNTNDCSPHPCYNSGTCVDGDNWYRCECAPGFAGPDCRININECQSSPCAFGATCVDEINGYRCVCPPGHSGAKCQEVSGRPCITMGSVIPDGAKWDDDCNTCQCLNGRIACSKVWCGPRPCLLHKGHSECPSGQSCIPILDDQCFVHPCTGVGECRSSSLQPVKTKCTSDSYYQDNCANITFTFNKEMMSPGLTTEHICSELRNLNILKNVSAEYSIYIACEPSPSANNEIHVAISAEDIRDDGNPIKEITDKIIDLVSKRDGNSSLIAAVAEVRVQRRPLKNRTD

The term Kd denotes the free concentration of one partner at which half of the binding sites on the other are occupied at equilibrium, for simple one-to-one binding. A low value points to higher affinity. Compound `[N-]=[N+]=N[C@]1(CO)O[C@@H](n2ccc(N)nc2=O)[C@@H](F)[C@@H]1O` [FNC, 2′-deoxy-2′-β-fluoro-4′-azidocytidine] displayed a Kd of 28.4 ± 6.6 µM.
